Test results from patent US20230348426A1, “OXOPYRROLIDINE FPR2 AGONISTS” (Bristol-Myers Squibb Company, priority 2020, published 2023).

Experiments:
human FPR1 = human FPR1 (Homo sapiens (Human), UniProt P21462); assay: FPR1 cyclic adenosine monophosphate (cAMP) assay; type: cell-based; settings: CHO cells overexpressing human FPR1; forskolin 10 µM; inhibition of cAMP production; read-out: hFPR1 cAMP EC50
In short: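 CHO cells overexpressing human FPR1 (4,000 cells/well) stimulated with 10 µM forskolin plus 200 µM IBMX in the presence of compound (0.020 nM–100 µM, 1% DMSO), 30 min at room temperature. Intracellular cAMP measured by HTRF. Inhibition of cAMP production fitted to a 4-parameter logistic equation.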

human FPR2 = human FPR2 (Homo sapiens (Human), UniProt P25090); assay: FPR2 cyclic adenosine monophosphate (cAMP) assay; type: cell-based; settings: CHO cells overexpressing human FPR2; forskolin 5 µM; inhibition of cAMP production; read-out: hFPR2 cAMP2 EC50
In short: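 CHO cells overexpressing human FPR2 (2,000/well) incubated 30 min at room temperature with compound (0.020 nM–100 µM, 1% DMSO), 5 µM forskolin and 200 µM IBMX.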

Sequence of human FPR2 (P25090 whole entry): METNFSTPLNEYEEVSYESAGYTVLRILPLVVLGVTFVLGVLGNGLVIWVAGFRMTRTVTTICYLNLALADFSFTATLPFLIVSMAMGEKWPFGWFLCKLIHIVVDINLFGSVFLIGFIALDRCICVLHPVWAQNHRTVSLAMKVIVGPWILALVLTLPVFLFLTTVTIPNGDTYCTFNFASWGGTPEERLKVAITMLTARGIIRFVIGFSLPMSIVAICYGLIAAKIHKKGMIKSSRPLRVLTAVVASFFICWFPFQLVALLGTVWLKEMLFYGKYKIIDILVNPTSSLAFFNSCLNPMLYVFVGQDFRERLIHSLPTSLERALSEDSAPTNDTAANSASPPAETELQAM
Sequence of human FPR1 (P21462 whole entry): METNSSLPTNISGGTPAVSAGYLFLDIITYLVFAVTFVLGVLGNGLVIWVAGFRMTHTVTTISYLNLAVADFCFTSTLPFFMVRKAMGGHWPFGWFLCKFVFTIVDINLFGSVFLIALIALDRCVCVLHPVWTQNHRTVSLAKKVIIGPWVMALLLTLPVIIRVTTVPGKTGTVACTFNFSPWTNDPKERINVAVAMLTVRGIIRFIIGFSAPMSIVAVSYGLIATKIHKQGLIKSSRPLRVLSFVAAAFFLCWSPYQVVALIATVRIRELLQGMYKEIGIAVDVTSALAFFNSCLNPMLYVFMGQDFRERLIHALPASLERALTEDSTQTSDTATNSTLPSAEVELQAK

EC50 (human FPR1)	EC50 (human FPR2)	Compound
1.4 nM	3.1 nM	COc1ccc([C@@H]2CN(c3c(C)ccn(CC(F)F)c3=O)C(=O)[C@H]2NC(=O)c2ccc(OC(F)(F)F)cc2)cc1 [Example 121]
1100 nM	3.3 nM	COc1cc(F)c([C@@H]2CN(c3nccc(NC4CCOC4)c3C(F)(F)F)C(=O)[C@H]2NC(=O)c2ccc(Cl)cc2)c(F)c1 (some centres unmarked) [Example 125]
6.3 nM	3.3 nM	CCn1cccc(N2C[C@@H](c3ccc(OC)cc3)[C@H](NC(=O)c3ccc(OC(F)(F)F)cc3)C2=O)c1=O [Example 128]
380 nM	3.3 nM	COc1cc(F)c([C@@H]2CN(c3nccc(NCC(C)O)c3C(F)(F)F)C(=O)[C@H]2NC(=O)c2ccc(OC(F)F)cc2)c(F)c1 (some centres unmarked) [Example 129]
340 nM	3.4 nM	COc1cc(F)c([C@@H]2CN(c3cccn(CCO)c3=O)C(=O)[C@H]2NC(=O)c2ccc(Cl)cc2)c(F)c1 [Example 130]
0.8 nM	3.4 nM	COCC(C(=O)N1CCOCC1)n1ccc(C)c(N2C[C@@H](c3c(F)cc(OC)cc3F)[C@H](NC(=O)c3ccc(OC(F)F)cc3)C2=O)c1=O (some centres unmarked) [Example 131]
0.8 nM	3.4 nM	COc1ccc([C@@H]2CN(c3c(C)ccn(C4CCOC4)c3=O)C(=O)[C@H]2NC(=O)c2ccc(OC(F)(F)F)cc2)cc1 (some centres unmarked) [Example 132]
12 nM	3.4 nM	COCC(CO)n1cccc(N2C[C@@H](c3c(F)cc(OC)cc3F)[C@H](NC(=O)c3ccc(OC(F)F)cc3)C2=O)c1=O (some centres unmarked) [Example 133]
1.6 nM	3.5 nM	COCC(C(=O)N(C)C)n1cccc(N2C[C@@H](c3c(F)cc(OC)cc3F)[C@H](NC(=O)c3ccc(OC(F)(F)F)cc3)C2=O)c1=O (some centres unmarked) [Example 134]
58 nM	3.5 nM	COc1cc(F)c([C@@H]2CN(c3nc(N4CCC(O)C4=O)ccc3F)C(=O)[C@H]2NC(=O)c2ccc(OC(F)F)cc2)c(F)c1 (some centres unmarked) [Example 135]
2.2 nM	3.5 nM	COCC(CO)n1cccc(N2C[C@@H](c3ccc(OC)cc3)[C@H](NC(=O)c3ccc(OC(F)(F)F)cc3)C2=O)c1=O (some centres unmarked) [Example 136]
1.7 nM	3.5 nM	COc1cc(F)c([C@@H]2CN(c3cccn(CC(C)OC)c3=O)C(=O)[C@H]2NC(=O)c2ccc(OC(F)(F)F)cc2)c(F)c1 (some centres unmarked) [Example 138]
87 nM	3.6 nM	COCC(CO)n1cccc(N2C[C@@H](c3c(F)cc(OC)cc3F)[C@H](NC(=O)c3ccc(OC(F)F)cc3)C2=O)c1=O (some centres unmarked) [Example 142]
23.1 nM	3.6 nM	COCC(CO)n1cccc(N2C[C@@H](c3c(F)cc(OC)cc3F)[C@H](NC(=O)c3ccc(OC(F)(F)F)cc3)C2=O)c1=O (some centres unmarked) [Example 144]
100 nM	4 nM	COc1cc(F)c([C@@H]2CN(c3cccnc3OC3CCOC3)C(=O)[C@H]2NC(=O)c2ccc(OC(F)F)cc2)c(F)c1 (some centres unmarked) [Example 157]
74 nM	4.1 nM	CCn1cccc(N2C[C@@H](c3c(F)cc(OC)cc3F)[C@H](NC(=O)c3ccc(C(F)(F)F)cc3)C2=O)c1=O [Example 159]
1100 nM	4.1 nM	COc1cc(F)c([C@@H]2CN(c3nccc(N4C[C@@H]5C[C@H]4CN5C)c3C#N)C(=O)[C@H]2NC(=O)c2ccc(Cl)cc2)c(F)c1 [Example 160]
3.4 nM	4.1 nM	COc1cc(F)c([C@@H]2CN(c3cccn(CC(OC)C(F)(F)F)c3=O)C(=O)[C@H]2NC(=O)c2ccc(OC(F)F)cc2)c(F)c1 (some centres unmarked) [Example 161]
1200 nM	4.2 nM	COc1cc(F)c([C@@H]2CN(c3nccc(NC4CC4)c3C(F)(F)F)C(=O)[C@H]2NC(=O)c2ccc(Cl)cc2)c(F)c1 [Example 163]
1.7 nM	4.2 nM	CCn1ccc(C)c(N2C[C@@H](c3ccc(OC)cc3F)[C@H](NC(=O)c3ccc(OC(F)F)cc3)C2=O)c1=O [Example 165]
2300 nM	4.3 nM	COc1cc(F)c([C@@H]2CN(c3nccc(NCC(C)(C)O)c3C(F)(F)F)C(=O)[C@H]2NC(=O)c2ccc(Cl)cc2)c(F)c1 [Example 166]
> 10000 nM	4.3 nM	COc1cc(F)c([C@@H]2CN(c3nccc(N4C[C@@H](C)N(C)[C@@H](C)C4)c3C#N)C(=O)[C@H]2NC(=O)c2ccc(Cl)cc2)c(F)c1 [Example 167]
21 nM	4.3 nM	CCn1cccc(N2C[C@@H](c3c(F)cc(OC)cc3F)[C@H](NC(=O)c3ccc(OC(F)F)cc3)C2=O)c1=O [Example 169]
0.9 nM	4.4 nM	CCn1ccc(C)c(N2C[C@@H](c3ccc(OC)cc3)[C@H](NC(=O)c3ccc(OC(F)(F)F)cc3)C2=O)c1=O [Example 170]

The remaining lines, values behind:

Compound	EC50 (human FPR1)	EC50 (human FPR2)
COc1cc(F)c([C@@H]2CN(c3nc(N4C(=O)C5CCCC54)ccc3F)C(=O)[C@H]2NC(=O)c2ccc(OC(F)F)cc2)c(F)c1 (some centres unmarked) [Example 119]	67 nM	3.1 nM
COc1ccc([C@@H]2CN(c3cccn(CC(F)F)c3=O)C(=O)[C@H]2NC(=O)c2ccc(OC(F)(F)F)cc2)cc1 [Example 120]	13 nM	3.1 nM
COc1cc(F)c([C@@H]2CN(c3nc(NC4CCOC4)ccc3F)C(=O)[C@H]2NC(=O)c2ccc(OC(F)F)cc2)c(F)c1 (some centres unmarked) [Example 122]	1080 nM	3.2 nM
COc1cc(F)c([C@@H]2CN(c3cccnc3OC(F)F)C(=O)[C@H]2NC(=O)c2ccc(Cl)cc2)c(F)c1 [Example 123]	41 nM	3.2 nM
COc1cc(F)c([C@@H]2CN(c3nc(N4CC(C)OCC4=O)ccc3F)C(=O)[C@H]2NC(=O)c2ccc(OC(F)(F)F)cc2)c(F)c1 (some centres unmarked) [Example 124]	47 nM	3.3 nM
COc1cc(F)c([C@H]2[C@H](NC(=O)c3ccc(OC(F)F)cc3)C(=O)N(c3ncccc3OC(C)C)[C@H]2C)c(F)c1 [Example 126]	2300 nM	3.3 nM
COCCn1cccc(N2C(=O)[C@@H](NC(=O)c3ccc(OC(F)F)cc3)[C@H](c3c(F)cc(OC)cc3F)[C@H]2C)c1=O [Example 127]	390 nM	3.3 nM
COCCn1cccc(N2C[C@@H](c3c(F)cc(OC)cc3F)[C@H](NC(=O)c3ccc(Cl)cc3)C2=O)c1=O [Example 137]	190 nM	3.5 nM
COc1cc(F)c([C@@H]2CN(c3ccc(CO)[nH]c3=O)C(=O)[C@H]2NC(=O)c2ccc(OC(F)F)cc2)c(F)c1 [Example 139]	570 nM	3.5 nM
COc1cc(F)c([C@@H]2CN(c3ccc(C)n(C)c3=O)C(=O)[C@H]2NC(=O)c2ccc(Cl)cc2)c(F)c1 [Example 140]	610 nM	3.5 nM
COc1cc(F)c([C@@H]2CN(c3cccn(CC(C)O)c3=O)C(=O)[C@H]2NC(=O)c2ccc(OC(F)F)cc2)c(F)c1 (some centres unmarked) [Example 141]	29 nM	3.6 nM
COc1ccc([C@@H]2CN(c3cccn(CCO)c3=O)C(=O)[C@H]2NC(=O)c2ccc(OC(F)F)cc2)c(F)c1 [Example 143]	53 nM	3.6 nM
COc1cc(F)c([C@@H]2CN(c3cccn(CC(F)F)c3=O)C(=O)[C@H]2NC(=O)c2ccc(OC(F)F)cc2)c(F)c1 [Example 145]	8.2 nM	3.7 nM
COc1cc(F)c([C@@H]2CN(c3nc(NC(C)=O)ccc3F)C(=O)[C@H]2NC(=O)c2ccc(OC(F)F)cc2)c(F)c1 [Example 146]	150 nM	3.8 nM
COc1cc(F)c([C@@H]2CN(c3cccn(CC(OC)C(F)(F)F)c3=O)C(=O)[C@H]2NC(=O)c2ccc(OC(F)(F)F)cc2)c(F)c1 (some centres unmarked) [Example 147]	2.2 nM	3.8 nM
COc1cc(F)c([C@@H]2CN(c3cccn(CC(F)F)c3=O)C(=O)[C@H]2NC(=O)c2ccc(OC(F)(F)F)cc2)c(F)c1 [Example 148]	19 nM	3.8 nM
COc1cc(F)c([C@@H]2CN(c3c(C)ccn(CC4CC4)c3=O)C(=O)[C@H]2NC(=O)c2ccc(OC(F)(F)F)cc2)c(F)c1 [Example 151]	0.5 nM	3.9 nM
COc1cc(F)c([C@@H]2CN(c3ccnc(N4C[C@@H](C)N(C)[C@@H](C)C4)c3C(F)(F)F)C(=O)[C@H]2NC(=O)c2ccc(OC(F)F)cc2)c(F)c1 [Example 152]	460 nM	3.9 nM
COCC(CO)n1cccc(N2C[C@@H](c3c(F)cc(OC)cc3F)[C@H](NC(=O)c3ccc(OC(F)(F)F)cc3)C2=O)c1=O (some centres unmarked) [Example 153]	4.2 nM	4 nM
COCC(CO)n1cccc(N2C[C@@H](c3ccc(Cl)cc3)[C@H](NC(=O)c3ccc(OC(F)(F)F)cc3)C2=O)c1=O (some centres unmarked) [Example 154]	3.3 nM	4 nM
COc1cc(F)c([C@@H]2CN(c3cccn(CC(O)C(F)(F)F)c3=O)C(=O)[C@H]2NC(=O)c2ccc(OC(F)(F)F)cc2)c(F)c1 (some centres unmarked) [Example 155]	9.3 nM	4 nM
COc1cc(F)c([C@@H]2CN(c3cccn(CC(OC)C(F)(F)F)c3=O)C(=O)[C@H]2NC(=O)c2ccc(OC(F)(F)F)cc2)c(F)c1 (some centres unmarked) [Example 156]	1.3 nM	4 nM
COCCn1cccc(N2C[C@@H](c3ccc(Cl)cc3)[C@H](NC(=O)c3ccc(OC(F)F)cc3)C2=O)c1=O [Example 162]	9.4 nM	4.1 nM
COc1cc(F)c([C@@H]2CN(c3cccn(CCN4CC5(COC5)C4)c3=O)C(=O)[C@H]2NC(=O)c2ccc(OC(F)F)cc2)c(F)c1 [Example 164]	290 nM	4.2 nM
COc1cc(F)c([C@@H]2CN(c3cc(C(F)(F)F)cn(C)c3=O)C(=O)[C@H]2NC(=O)c2ccc(OC(F)F)cc2)c(F)c1 [Example 168]	1600 nM	4.3 nM
